Results published in US20190159449A1, “USE OF NON-PROLINE CYCLIC AMINO ACIDS TO INCREASE THE TOLERANCE OF PLANTS TO CONDITIONS OF OSMOTIC STRESS” (CONSEJO SUPERIOR DE INVESTIGACIONES CIENTÍFICAS (CSIC), priority 2016, published 2019).
Marks after values point to notes of the source that are not given here.

Assays:
Format in all cases: in vivo
Arabidopsis thaliana = test: Salt stress (50 mM NaCl) growth assay of hydroponically grown Arabidopsis thaliana after 24 h root treatment; conditions: for Fresh weight / RGR (relative growth rate) / S.I (sensitivity index) / % reduction RGR: 2.5 mM treatment 24 h; for Fresh weight: aerial part; for Effect on growth and tolerance to salt stress (in words): 2.5 mM treatment, 50 mM NaCl; for S.I (sensitivity index) / % reduction RGR: 7 days with 50 mM NaCl; for S.I (sensitivity index): S.I = DWs − DWc/DWc; for % reduction RGR: relative to control conditions
Protocol: The conditions described below were used as the base for all examples included below. The growing conditions, such as the nutrient solution and the substrate used have been optimized to perform this type of experiments. Likewise, the dose of NaCl used has been optimized for this type of experiments since 50 mM makes it possible to evaluate if a treatment is capable of increasing tolerance to salinity (Jiménez-Arias et al., 2015. Environmental and Experimental Botany 120, 23-30).
A hydroponic culture system was used for the cultivation of the Arabidopsis thaliana plants necessary for the assays. This system was established in hydroponics trays with 1.9 L capacity (Araponics®) wherein 18 plants were grown per container. A mixture of river sand with two different granulometries was used as physical substrate. The seeds were sowed in seed-holders, which were deposited during one week in a small greenhouse consisting of a high-density polyethylene tray with river sand (washed siliceous sand, with medium granulometry) with sterile distilled water covered with a transparent plastic sheet which was deposited in a growth chamber at 22±2° C., with a photoperiod of 16 hours of light (100-110 μmol m-2 s-1 of PAR) and with 100% relative humidity. After one week, the seed-holders with the seedlings were transferred to the hydroponics trays in the same photoperiod and light intensity conditions but with 60-70% of relative humidity. The seedlings were maintained without aeration during the first week, after this the solution (Table 1) was generously aerated using aeration pumps and was renewed every 7 days.
(§1) In this way, 21-day old plants were treated during 24 hours in nutrient solution enriched with a concentration of 2.5 mM of alanine. Subsequently, the plants were deposited in normal nutrient solution for 24 hours and they later grew for 7 days in nutrient solution with or without a supply of 50 mM of NaCl. This experiment was repeated twice, using 12 plants per experiment, with the value shown in table 2 being the average of 24 plants for each one of the conditions.
Subsequently, the wet weight of the aerial part of the plants was determined.
as §1, with “21-day” for “In this way, 21-day”, “pyroglutamic acid or pipecolinic acid.” for “alanine.”
The plants were deposited in nutrient solution enriched with one of the compounds indicated above for 24 hours and they later grew for 7 days in nutrient solution with a supply of 50 mM of NaCl. As control, the plants grown on nutrient solution and NaCl were used. This experiment was repeated twice, using 12 plants per experiment, with the value shown in table 2 being the average of 24 plants for each one of the conditions.
Two measurements were used in order to illustrate the defence to salt stress. First, the values for the sensitivity index (S.I) described by Saadallah et al. (2001, Agronomie 21, 627-634) is shown.
The greater the negative value of the S.I., the greater the negative effect of salinity on the plant. The second measurement is a percentage of reduction in the relative a growth rate of the plant subjected to conditions of salt stress.

[1] = system: Solanum lycopersicum (tomato); test: Salt stress growth assay of hydroponic tomato plants after 24 h root treatment; conditions: 2.5 mM; for Decrease in growth in saline conditions with respect to growth in the control solution: 7 days in NaCl solution, fresh weight; for Increase in tolerance compared with the proline treatment / Increase in tolerance compared with the control: saline conditions; for Increase in tolerance compared with the proline treatment: versus proline 2.5 mM; for Increase in tolerance compared with the control: versus reference group
Protocol: As an example, tomato (Solanum lycopersicum) of the variety Realeza pear was used. […] From the first day, the solution was generously aerated by air pumps (30 min per day). The plants were maintained during two days with this proportion of solution and distilled water, and then they were removed from the medium and placed, under the same conditions, in plastic containers during 24 hours with the different treatments in distilled water (table 5): After 24 hours, the plants were again introduced in the trays with the same proportion of distilled water/nutrient solution stated above and they were maintained like this for 48 hours. […] Then, the growth of treated and untreated plants was compared, in normal conditions and salinity conditions. For the statistical analysis, the data collected was subjected to the normality test of the Kolmogorov-Smirnov test with the Lilliefors correction. Levene's test was used to verify the homoscedasticity of the data. As the data behaved following a normal distribution, its measurements were compared by one-way ANOVA and the significant differences were calculated using the Bonferroni post hoc test. The statistical analyses were performed with the SSPS computer package, version 20 for Windows.

[2] = system: Solanum lycopersicum (tomato); test: Drought (water deficit) assay of tomato in greenhouse conditions; conditions: four root treatments at 2.5 mM, after 10 days of drought; for Net photosynthesis: versus drought reference
Protocol: The crop used was tomato (Solanum lycopersicum) of the “Gransol” capa negra variety. The experiment was performed in a glass greenhouse with four tables measuring 10 metres in length by 2 metres in width. Drip irrigation was used, supplied by self-compensated drippers to control the flow of water at all times.
5-week old seedings were transplanted to 2-litre capacity pots using a mixture of peat and river sand to facilitate drainage. In total, 120 tomato plants were used. Four treatments were performed on 40 plants after the transplant (with 15 days between each treatment), adding 50 ml of a 2.5 mM concentration of Pyroglutamic to each pot.
Another 40 plants were treated via root applications using 2.5 mM of pipecolinic acid. The remaining plants randomly distributed throughout the greenhouse were treated with distilled water by way of control. The drought assay commenced on completing the four treatments, which was performed by removing the dripper from the 20 plants randomly chosen for each one of the treatments. The plants were deprived of water for 10 days.
The relative water content of the leaf was estimated after 10 days of drought for each one of the treatments, in control conditions and drought conditions, using 15 leaves. The following formula was used for this:
R.W.C(%)/=[(Fw−Dw)/(Tw−Dw)]×100
With Fw: fresh weight; Dw: dry weight; Tw: turgor weight. RWC is the measurement most commonly used to estimate the possible water deficit a plant leaf has.
Furthermore, photosynthesis was estimated with the “Lc-pro sd” system (ADC Bioscientific). To do this, the tomato leaves were stimulated with a light source at 1000 μmol m-2 s-1, with this light intensity being previously estimated to achieve the maximum photosynthesis in our crop and conditions. To do this, the parameters of net photosynthesis (A) and evapotranspiration (E) were determined, calculating with them the efficiency in water use (A/E) as described by Lambers et al. (2008. Plant Physiological Ecology. 2nd edition. Springer, New York). The measurements were taken after 10 days of assay from six plants for each one of the treatments.
The data of the different variables were subjected to the normality test using the Kolmogorov-Smirnov test with the Lilliefors correction. Levene's test was used to verify the homoscedasticity of the data. As the data behaved following a normal distribution, its measurements were compared by one-way ANOVA and the significant differences were calculated using the Bonferroni post hoc test. The statistical analyses were performed with the SSPS computer package, version 20 for Windows.

[3] = 7 days in nutrient solution with 50 mM NaCl (saline conditions)
[4] = 7 days in nutrient solution without NaCl (optimal conditions)
[5] = 7 days with 50 mM NaCl (saline conditions)
[6] = 7 days without NaCl (optimal conditions)

C[C@H](N)C(=O)O [Alanine, alanine, reference compound]
Fresh weight (Arabidopsis thaliana; [3]): 36 ± 2 mg plant
Fresh weight (Arabidopsis thaliana; [4]): 142 ± 8 mg plant
RGR (relative growth rate) (Arabidopsis thaliana; [5]): 0.11**
RGR (relative growth rate) (Arabidopsis thaliana; [6]): 0.58
Effect on growth and tolerance to salt stress (in words) (Arabidopsis thaliana): not capable of promoting growth, nor increasing tolerance to salinity

O=C(O)[C@@H]1C[C@@H](O)CN1 [Hydroxyproline, hydroxyproline, reference compound]
Decrease in growth in saline conditions with respect to growth in the control solution [1]: 17%
Decrease in growth under control conditions with respect to the reference ([1]; 7 days, control solution without salt, plant weight): 35%
S.I (sensitivity index) (Arabidopsis thaliana): −0.25**
% reduction RGR (Arabidopsis thaliana): 24.34** %

O=C(O)C1CCCCN1 (stereo not shown) [Pipecolinic acid, pipecolinic acid]
Decrease in growth in saline conditions with respect to growth in the control solution [1]: 7%
Increase in tolerance compared with the proline treatment [1]: 83%
Increase in tolerance compared with the control [1]: 78%
Fresh weight (Arabidopsis thaliana; [3]): 133.9 ± 21 mg plant
Fresh weight (Arabidopsis thaliana; [4]): 145.9 ± 22 mg plant
RGR (relative growth rate) (Arabidopsis thaliana; [5]): 0.45
S.I (sensitivity index) (Arabidopsis thaliana): −0.07**
% reduction RGR (Arabidopsis thaliana): 8.12** %
RGR (relative growth rate) (Arabidopsis thaliana; [6]): 0.46
Effect on growth and tolerance to salt stress (in words) (Arabidopsis thaliana): effect on the increased tolerance to salt stress is proven
Decrease in relative water content of the leaf with respect to its control [2]: 5.1%
Net photosynthesis [2]: greater than the drought reference plants

O=C(O)[C@@H]1CCCN1 [Proline, proline]
Decrease in growth in saline conditions with respect to growth in the control solution [1]: 42%

O=C1CC[C@@H](C(=O)O)N1 [Pyroglutamic acid, pyroglutamic acid]
Decrease in growth in saline conditions with respect to growth in the control solution [1]: 9%
Increase in tolerance compared with the proline treatment [1]: 78%
Increase in tolerance compared with the control [1]: 72%
Fresh weight (Arabidopsis thaliana; [3]): 170.4 ± 15 mg plant
Fresh weight (Arabidopsis thaliana; [4]): 183.9 ± 15 mg plant
RGR (relative growth rate) (Arabidopsis thaliana; [5]): 0.49
S.I (sensitivity index) (Arabidopsis thaliana): −0.1**
% reduction RGR (Arabidopsis thaliana): 10.22** %
RGR (relative growth rate) (Arabidopsis thaliana; [6]): 0.56
Effect on growth and tolerance to salt stress (in words) (Arabidopsis thaliana): effect on the increased tolerance to salt stress is proven
Decrease in relative water content of the leaf with respect to its control [2]: did not show this decrease
Net photosynthesis [2]: greater than the drought reference plants
